The assay concerns the target T1, receptor 5.24 (Carassius auratus, UniProt Q9PW88).
T1 construct: The receptor 5.24 full length cDNA detects 1-2 bands in genomic DNA blots; expressed in transfected cells; host or cells: HEK 293 cells expressing SV40 large T antigen (293-TSA)
T1 sequence (Q9PW88 25-877): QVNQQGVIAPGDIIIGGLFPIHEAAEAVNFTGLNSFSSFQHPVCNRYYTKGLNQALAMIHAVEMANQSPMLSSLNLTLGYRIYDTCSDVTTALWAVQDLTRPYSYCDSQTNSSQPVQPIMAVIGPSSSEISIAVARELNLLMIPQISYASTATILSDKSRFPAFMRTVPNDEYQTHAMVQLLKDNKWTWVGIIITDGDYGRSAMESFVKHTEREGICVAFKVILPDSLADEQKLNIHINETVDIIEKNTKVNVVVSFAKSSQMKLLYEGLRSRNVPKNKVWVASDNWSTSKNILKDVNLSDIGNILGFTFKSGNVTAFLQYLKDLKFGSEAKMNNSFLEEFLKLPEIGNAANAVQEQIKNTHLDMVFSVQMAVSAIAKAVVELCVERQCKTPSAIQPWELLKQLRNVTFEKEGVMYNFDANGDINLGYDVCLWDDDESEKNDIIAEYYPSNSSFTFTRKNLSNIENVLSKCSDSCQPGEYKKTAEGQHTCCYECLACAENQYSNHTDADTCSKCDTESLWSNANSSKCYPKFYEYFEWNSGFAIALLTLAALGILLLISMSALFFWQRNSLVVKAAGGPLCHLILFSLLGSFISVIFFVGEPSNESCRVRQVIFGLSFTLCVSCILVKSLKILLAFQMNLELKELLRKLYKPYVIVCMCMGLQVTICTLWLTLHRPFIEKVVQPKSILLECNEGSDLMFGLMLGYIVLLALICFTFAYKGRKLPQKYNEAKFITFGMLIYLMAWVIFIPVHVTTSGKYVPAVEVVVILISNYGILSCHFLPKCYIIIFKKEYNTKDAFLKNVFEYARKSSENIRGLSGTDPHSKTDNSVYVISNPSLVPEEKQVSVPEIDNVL
Description: biochemical. The class given is binding. The protocol: Structure-Activity Properties of Compounds Interacting with the Cloned Goldfish Amino Acid Odorant Receptor. An understanding of how odorant receptors are used to encode olfactory information requires a characterization of the odorant specificities of individual receptor types. We therefore wished to determine the relative specificity of receptor 5.24 for structurally related ligands. […] Briefly, 3H-arginine binding to membranes from receptor 5.24-expressing HEK 293 cells was assayed in the absence or presence of varying concentrations of competitor ligands.
Mammalian Cell Culture and DNA Transfections. For cell transfections, the receptor 5.24 cDNA insert was subcloned into two expression vectors: CMVI, which utilizes a human cytomegalovirus (CMV) immediate early promoter-enhancer plus the CMV intron A sequence to drive expression, and 608RX-2.2L, which is similar to CMVI except the cDNA insert is followed by an internal ribosome entry site (IRES)—enhanced green fluorescent protein (EGFP) coding sequence; 608RX-2.2L also contains a puromycin resistance gene. For transient assays, HEK 293 cells expressing the SV40 large T antigen (293 TSA cells) were transfected with the CMVI-receptor 5.24 or CMVI control plasmid using lipofectamine (Life Technologies) and harvested at 48 hours for membrane preparations. For stable cell lines, 293-TSA cells were transfected with the 608RX-2.2L-receptor 5.24 plasmid or a control 608RX-2.2L plasmid and selected in puromycin. Colonies showing high levels of EGFP fluorescence (as judged by epifluorescence microscopy) were picked, expanded, and screened for 3H-L-arginine binding (see below).
Membrane Preparations and Ligand Binding Assays. Membranes for ligand binding assays were prepared by washing confluent cells three times with phosphate buffered saline (PBS), detaching cells with a PBS-based enzyme-free dissociation solution, and resuspending cells in ice-cold 5.0 mM Hepes, pH 7.4, 1.0 mM EDTA, 1.0 μg/ml leupeptin, 0.5 mM PMSF. All subsequent manipulations were performed on ice. After a 30 min incubation, the cell suspension was homogenized and centrifuged at 100,000×g for 30 min. Cell membrane pellets were washed twice by resuspension and centrifugation in binding buffer (20 mM Hepes, pH 7.4, 1.0 mM EDTA, 2.0 mM MgCl2, 1.0 μg/ml leupeptin, 0.5 mM PMSF), resuspended in binding buffer, and frozen at −80° C.
Saturation binding assays were performed using 20-25 μg of membrane protein in a final volume of 100 μl binding buffer and increasing concentrations of [2,3-3H] L-arginine (specific activity=40 Ci/mmol; Dupont NEN). Non-specific binding was measured in the presence of 500 μM unlabeled L-arginine. Competition assays were performed with 500 nM [2,3-3H] L-arginine and increasing concentrations of competitor ligands. All incubations were performed at 4° C. for 60 min and terminated by rapid filtration through Whatman GF/C filters pretreated with ice cold 0.1% polyethyleneimine. Filters were washed three times with 4.0 ml ice cold 20 mM Hepes, pH 7.4, and retained radioactivity was measured by scintillation counting.

Turning to `N=C(N)NCCC[C@H](N)C(=O)O` [L-Arginine], the Ki – broadly, a measure of affinity in units of concentration, obtained from inhibition or displacement – turned out to be 80 nM. Moreover, for the setting “comparative binding studies”, the “binding to receptor 5.24, in words” value was “highest affinities”.
